The text below walks through data of patent US8987195B2 (priority 2012, dated 2015).

Where two headings read alike, the source gives them in different places.

Assay [1] relates to HCV genotype 1b replicon. Description: HCV replicon assay, genotype 1b replicon EC50. The following applies: Hepatitis C virus, read-out: EC50 [gt-1b]. The assay is classed as cell-based, Hepatitis C virus. The gist of the method:
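Replicon cells (Neo^r, some luciferase:Neo^r fusion); G418 removed at plating; compound dilution series, 24-48 h. Readout: RNA by 32P-probe hybridization/protection or TaqMan, normalized to cyclophilin A RNA, or luciferase. EC50 vs DMSO control, 4-parameter fit.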

The target of assay [2] is HCV NS3/4A protease genotype 1b (Hepatitis C virus genotype 1b, UniProt P26663). Description: HCV NS3/4A protease time-resolved fluorescence (TRF) assay, Ki against genotype 1b. It counts as biochemical. In outline:
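Time-resolved fluorescence readout of NS3/4A cleavage of 25 nM europium-labelled peptide over 2.5 h at room temperature, enzyme levels set for signal/background 10–30 (0.2, 0.4, 0.025 nM for 1b, A156T, 3a). Ki by IC50=Ki(1+[S]/KM).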

Where [3] appears, read: IC50 [gt-1b] (nM), NS3/4A genotype 1b, enzyme 0.2 nM.
[4] abbreviates: IC50 [gt-1b], NS3/4A protease TRF assay, genotype 1b enzyme 0.2 nM.

As for `Cc1nc2ccc(OC(F)(F)F)cc2c2c1O[C@]1(CC2)C[C@H]2C(=O)N[C@]3(C(=O)NS(=O)(=O)C4(C)CC4)C[C@H]3/C=C\CCCCC[C@H](NC(=O)OCC(C)(C)C)C(=O)N2C1` [Example 297, 2,2-dimethylpropyl [(2R,6S,12Z,13aS,14aR,16aS)-5′-methyl-14a-{[(1-methylcyclopropyl)sulfonyl]carbamoyl}-5,16-dioxo-9′-(trifluoromethoxy)-1,1′,2′,5,6,7,8,9,10,11,13a,14,14a,15,16,16a-hexadecahydrospiro[cyclopropa[e]pyrrolo[1,2-a][1,4]diazacyclopentadecine-2,3′-pyrano[2,3-c]quinolin]-6-yl]carbamate], the concentration giving a half-maximal response (EC50) in assay [1] (genotype 1b replicon) amounted to 6.06 nM. This compound also came in with an IC50 in assay [2] (setting [3]) of 0.009 nM.
In the same order, the values of `COc1ccc2c3c(c(C4CC4)nc2c1)O[C@]1(CC3)C[C@H]2C(=O)N[C@]3(C(=O)NS(=O)(=O)C4(C)CC4)C[C@H]3/C=C\CCCCC[C@H](NC(=O)OC(C)C)C(=O)N2C1` [Example 137, propan-2-yl [(2R,6S,12Z,13aS,14aR,16aS)-5′-cyclopropyl-8′-methoxy-14a-{[(1-methylcyclopropyl)sulfonyl]carbamoyl}-5,16-dioxo-1,1′,2′,5,6,7,8,9,10,11,13a,14,14a,15,16,16a-hexadecahydrospiro[cyclopropa[e]pyrrolo[1,2-a][1,4]diazacyclopentadecine-2,3′-pyrano[2,3-c]quinolin]-6-yl]carbamate] are 1.71 nM and 0.025 nM.
Consider `Cc1ccc2nc(C)c3c(c2c1)CC[C@]1(C[C@H]2C(=O)NC4(C(=O)NS(=O)(=O)C5(C)CC5)C[C@H]4/C=C\CCCCC[C@H](NC(=O)OC(C)(C)C)C(=O)N2C1)O3` (stereo partly drawn) [Example 42, tert-Butyl (1aR,3aS,3′R,9S,16aS,Z)-5′,9′-dimethyl-1a-(1-methylcyclopropylsulfonylcarbamoyl)-3,8-dioxo-1a,1′,2,2′,3,3a,4,6,8,9,10,11,12,13,14,16a-hexadecahydro-1H -spiro[cyclopropa[e]pyrrolo[1,2-a][1,4]diazacyclopentadecine-5,3′-pyrano[2,3-c]quinoline]-9-ylcarbamate], for which, in assay [1] (genotype 1b replicon), the concentration giving a half-maximal response (EC50) amounted to 2.59 nM. Besides, in assay [2] (setting [3]), half-maximal inhibition (IC50) was put at 0.008 nM.
For the compound `COc1ccc2nc(C3CC3)c3c(c2c1)[C@H](F)C[C@]1(C[C@H]2C(=O)N[C@]4(C(=O)NS(=O)(=O)C5(C)CC5)C[C@H]4/C=C\CCCCC[C@H](NC(=O)OC(C)(C)C)C(=O)N2C1)O3` [Example 428, tert-butyl [(l′R,2S,6S,12Z,13aS,14aR,16aS)-5′-cyclopropyl-1′-fluoro-9′-methoxy-14a-{[(1-methylcyclopropyl)sulfonyl]carbamoyl}-5,16-dioxo-1,1′,2′,5,6,7,8,9,10,11,13a,14,14a,15,16,16a-hexadecahydrospiro[cyclopropa[e]pyrrolo[1,2-a][1,4]diazacyclopentadecine-2,3′-pyrano[2,3-c]quinolin]-6-yl]carbamate], the EC50 in assay [1] (HCV replicon, genotype 1b) was found to be 2.21 nM. The compound also returned a half-maximal inhibitory concentration (IC50) in assay [2] (setting [4]) of 0.02 nM.
As for `Cc1nc2ccc(OC(F)(F)F)cc2c2c1O[C@]1(CC2)C[C@H]2C(=O)N[C@]3(C(=O)NS(=O)(=O)C4(C)CC4)C[C@H]3/C=C\CCCCC[C@H](NC(=O)OCC(C)C)C(=O)N2C1` [Example 124, 2-methylpropyl [(2R,6S,12Z,13aS,14aR,16aS)-5′-methyl-14a-{[(1-methylcyclopropyl)sulfonyl]carbamoyl}-5,16-dioxo-9′-(trifluoromethoxy)-1,1′,2′,5,6,7,8,9,10,11,13a,14,14a,15,16,16a-hexadecahydrospiro[cyclopropa[e]pyrrolo[1,2-a][1,4]diazacyclopentadecine-2,3′-pyrano[2,3-c]quinolin]-6-yl]carbamate], the EC50 in assay [1] (genotype 1b replicon) turned out to be 2.49 nM. Also, 0.016 nM corresponded to half-maximal inhibition in assay [2] (setting [3]) (IC50).
As to `COCCCOc1ccc2nc(C)c3c(c2c1)CC[C@]1(C[C@H]2C(=O)N[C@]4(C(=O)NS(=O)(=O)C5(C)CC5)C[C@H]4/C=C\CCCCC[C@H](NC(=O)OC(C)(C)C)C(=O)N2C1)O3` [Example 438, tert-butyl [(2R,6S,12Z,13aS,14aR,16aS)-9′-(3-methoxypropoxy)-5′-methyl-14a-{[(1-methylcyclopropyl)sulfonyl]carbamoyl}-5,16-dioxo-1,1′,2′,5,6,7,8,9,10,11,13a,14,14a,15,16,16a-hexadecahydrospiro[cyclopropa[e]pyrrolo[1,2-a][1,4]diazacyclopentadecine-2,3′-pyrano[2,3-c]quinolin]-6-yl]carbamate], the EC50 in assay [1] (HCV replicon, genotype 1b) came out at 3.5 nM. Moreover, in assay [2] (setting [4]), the IC50 stood at 0.023 nM.
As to `COc1ccc2c3c(c(C4CC4)nc2c1)O[C@]1(CC3)C[C@H]2C(=O)N[C@]3(C(=O)NS(=O)(=O)C4(C)CC4)C[C@H]3/C=C\CCCCC[C@H](NC(=O)CC(C)(C)C)C(=O)N2C1` [Example 269, (2R,6S,12Z,13aS,14aR,16a5)-5′-cyclopropyl-6-[(3,3-dimethylbutanoyl)amino]-8′-methoxy-N-[(1-methylcyclopropyl)sulfonyl]-5,16-dioxo-1,1′,2′,6,7,8,9,10,11,13a,14,15,16,16a-tetradecahydrospiro[cyclopropa[e]pyrrolo[1,2-a][1,4]diazacyclopentadecine-2,3′-pyrano[2,3-c]quinoline]-14a(5H)-carboxamide], the EC50 in assay [1] (genotype 1b replicon, HCOOH salt) was 11.9 nM. Further, in assay [2] (IC50 [gt-1b] (nM), NS3/4A genotype 1b, enzyme 0.2 nM, HCOOH salt), the IC50 was found to be 0.337 nM.
Regarding `Cc1nc2ccc(OC(F)(F)F)cc2c2c1O[C@]1(CC2)C[C@H]2C(=O)N[C@]3(C(=O)NS(=O)(=O)C4(C)CC4)C[C@H]3/C=C\CCCCC[C@H](NC(=O)OC(C)(C)C(F)(F)F)C(=O)N2C1` [Example 298, 1,1,1-trifluoro-2-methylpropan-2-yl [(2R,6S,12Z,13aS,14aR,16aS)-5′-methyl-14a-{[(1-methylcyclopropyl)sulfonyl]carbamoyl}-5,16-dioxo-9′-(trifluoromethoxy)-1,1′,2′,5,6,7,8,9,10,11,13a,14,14a,15,16,16a-hexadecahydrospiro[cyclopropa[e]pyrrolo[1,2-a][1,4]diazacyclopentadecine-2,3′-pyrano[2,3-c]quinolin]-6-yl]carbamate], the EC50 in assay [1] (genotype 1b replicon) was 6.31 nM. Also, half-maximal inhibition in assay [2] (setting [3]) (IC50) required 0.017 nM.
`COc1ccc2nc(C(F)(F)F)c3c(c2c1)[C@H](F)C[C@]1(C[C@H]2C(=O)N[C@]4(C(=O)NS(=O)(=O)C5(C)CC5)C[C@H]4/C=C\CCCCC[C@H](NC(=O)OC(C)(C)C)C(=O)N2C1)O3` [Example 427, tert-butyl [(l′R,2S,6S,12Z,13aS,14aR,16aS)-1′-fluoro-9′-methoxy-14a-{[(1-methylcyclopropyl)sulfonyl]carbamoyl}-5,16-dioxo-5′-(trifluoromethyl)-1,1′,2′,5,6,7,8,9,10,11,13a,14,14a,15,16,16a-hexadecahydrospiro[cyclopropa[e]pyrrolo[1,2-a][1,4]diazacyclopentadecine-2,3′-pyrano[2,3-c]quinolin]-6-yl]carbamate]: in assay [1] (HCV replicon, genotype 1b), the half-maximal effective concentration (EC50) came to 1.46 nM. The half-maximal inhibitory concentration (IC50) in assay [2] (setting [4]) was found to be 0.015 nM.
Take `CC1(S(=O)(=O)NC(=O)[C@@]23C[C@H]2/C=C\CCCCC[C@H](NC(=O)OC2CCC2)C(=O)N2C[C@@]4(CCc5c(c(C6CC6)nc6c(F)cccc56)O4)C[C@H]2C(=O)N3)CC1` [Example 175, cyclobutyl [(2R,6S,12Z,13aS,14aR,16aS)-5′-cyclopropyl-7′-fluoro-14a-{[(1-methylcyclopropyl)sulfonyl]carbamoyl}-5,16-dioxo-1,1′,2′,5,6,7,8,9,10,11,13a,14,14a,15,16,16a-hexadecahydrospiro[cyclopropa[e]pyrrolo[1,2-a][1,4]diazacyclopentadecine-2,3′-pyrano[2,3-c]quinolin]-6-yl]carbamate]: the EC50 in assay [1] (genotype 1b replicon) was found to be 1.67 nM. For the same compound, 0.028 nM corresponded to half-maximal inhibition in assay [2] (setting [3]) (IC50).
For the compound `Cc1nc2ccc(OCC(F)(F)F)cc2c2c1O[C@]1(CC2)C[C@H]2C(=O)N[C@]3(C(=O)NS(=O)(=O)C4(C)CC4)C[C@H]3/C=C\CCCCC[C@H](NC(=O)OC(C)(C)C)C(=O)N2C1` [Example 296, tert-butyl [(2R,6S,12Z,13aS,14aR,16aS)-5′-methyl-14a-{[(1-methylcyclopropyl)sulfonyl]carbamoyl}-5,16-dioxo-9′-(2,2,2-trifluoroethoxy)-1,1′,2′,5,6,7,8,9,10,11,13a,14,14a,15,16,16a-hexadecahydrospiro[cyclopropa[e]pyrrolo[1,2-a][1,4]diazacyclopentadecine-2,3′-pyrano[2,3-c]quinolin]-6-yl]carbamate], in assay [1] (genotype 1b replicon), the EC50 worked out at 2.55 nM. The compound further showed a concentration for half-maximal inhibition (IC50) in assay [2] (setting [3]) of 0.009 nM.
In the case of `COc1ccc2nc(C(F)(F)F)c3c(c2c1)[C@H](O)C[C@]1(C[C@H]2C(=O)N[C@]4(C(=O)NS(=O)(=O)C5(C)CC5)C[C@H]4/C=C\CCCCC[C@H](NC(=O)OC(C)(C)C)C(=O)N2C1)O3` [Example 54, tert-Butyl [(1′R,2S,6S,12Z,13aS,14aR,16aS)-1′-hydroxy-9′-methoxy-14a-{[(1-methylcyclopropyl)sulfonyl]carbamoyl}-5,16-dioxo-5′-(trifluoromethyl) -1,1′,2′,5,6,7,8,9,10,11,13a,14,14a,15,16,16a-hexadecahydrospiro[cyclopropa[e]pyrrolo[1,2-a][1,4]diazacyclopentadecine-2,3′-pyrano[2,3-c]quinolin]-6-yl]carbamate], in assay [1] (genotype 1b replicon), the EC50 came out at 1.18 nM. This compound also showed an IC50 in assay [2] (setting [3]) of 0.012 nM.
